Experiments:
[1] = molecular target: Multidrug resistance-associated protein 1 (Homo sapiens) (UniProt P33527); assay: Effective concentration to inhibit MRP1 in potentiation assay
[2] = molecular target: Multidrug resistance-associated protein 1 (Homo sapiens) (UniProt P33527); assay: as above; remark: listed apart in the source

Sequence of Multidrug resistance-associated protein 1 (Homo sapiens) (P33527 whole entry, looked up): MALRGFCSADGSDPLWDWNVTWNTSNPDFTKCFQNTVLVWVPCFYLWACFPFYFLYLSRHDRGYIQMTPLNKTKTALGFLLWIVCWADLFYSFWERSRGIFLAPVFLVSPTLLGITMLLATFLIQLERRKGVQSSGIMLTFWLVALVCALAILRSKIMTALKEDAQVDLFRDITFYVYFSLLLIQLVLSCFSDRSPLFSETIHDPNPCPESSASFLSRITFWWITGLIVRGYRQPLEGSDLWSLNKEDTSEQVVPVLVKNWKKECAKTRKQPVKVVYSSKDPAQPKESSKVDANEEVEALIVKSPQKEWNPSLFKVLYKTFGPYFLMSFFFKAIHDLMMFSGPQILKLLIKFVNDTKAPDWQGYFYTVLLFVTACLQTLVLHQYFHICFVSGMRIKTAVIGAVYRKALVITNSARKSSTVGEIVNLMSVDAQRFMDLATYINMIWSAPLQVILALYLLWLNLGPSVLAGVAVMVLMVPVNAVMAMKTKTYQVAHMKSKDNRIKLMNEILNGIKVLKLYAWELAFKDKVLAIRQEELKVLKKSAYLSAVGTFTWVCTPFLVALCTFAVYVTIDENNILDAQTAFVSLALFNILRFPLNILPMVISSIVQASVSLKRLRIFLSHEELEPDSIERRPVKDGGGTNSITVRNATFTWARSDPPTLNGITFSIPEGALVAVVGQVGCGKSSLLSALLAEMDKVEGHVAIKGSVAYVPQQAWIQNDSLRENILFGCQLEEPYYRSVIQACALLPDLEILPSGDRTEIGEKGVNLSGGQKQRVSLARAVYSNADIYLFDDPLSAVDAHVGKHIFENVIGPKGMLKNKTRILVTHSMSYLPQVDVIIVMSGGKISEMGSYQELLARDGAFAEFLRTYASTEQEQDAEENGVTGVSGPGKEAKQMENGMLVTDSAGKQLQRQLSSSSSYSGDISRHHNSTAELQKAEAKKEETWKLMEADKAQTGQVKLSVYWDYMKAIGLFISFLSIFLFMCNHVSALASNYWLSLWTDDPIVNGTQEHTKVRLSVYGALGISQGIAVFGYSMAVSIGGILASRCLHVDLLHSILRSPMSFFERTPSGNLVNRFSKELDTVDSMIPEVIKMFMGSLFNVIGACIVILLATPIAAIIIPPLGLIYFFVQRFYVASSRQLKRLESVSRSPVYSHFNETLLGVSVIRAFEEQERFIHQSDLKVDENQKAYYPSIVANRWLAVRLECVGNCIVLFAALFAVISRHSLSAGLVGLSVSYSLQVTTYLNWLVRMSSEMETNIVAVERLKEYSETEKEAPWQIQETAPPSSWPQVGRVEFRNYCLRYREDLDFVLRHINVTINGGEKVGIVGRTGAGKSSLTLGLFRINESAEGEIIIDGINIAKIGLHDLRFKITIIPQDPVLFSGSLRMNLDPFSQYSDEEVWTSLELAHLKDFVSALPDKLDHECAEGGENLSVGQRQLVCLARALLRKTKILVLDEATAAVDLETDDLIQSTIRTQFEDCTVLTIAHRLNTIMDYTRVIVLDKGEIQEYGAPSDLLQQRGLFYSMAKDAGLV

EC50 [1] [nM] | EC50 [2] [nM] | SMILES
150 | – | COc1cccc(CNC(=O)c2c3n(c4c(N5CCN(CCc6ccc(F)c(F)c6)CC5)ncnc24)CCCC3)c1OC [4-{4-[2-(3,4-Difluoro-phenyl)-ethyl]-piperazin-1-yl}-6,7,8,9-tetrahydro-pyrimido[4,5-b]indolizine-10-carboxylic acid 2,3-dimethoxy-benzylamide]
– | 97 | O=C(NCc1ccccn1)c1c2n(c3c(N4CCN(CCc5ccc(F)c(F)c5)CC4)ncnc13)CCCC2 [4-{4-[2-(3,4-Difluoro-phenyl)-ethyl]-piperazin-1-yl}-6,7,8,9-tetrahydro-pyrimido[4,5-b]indolizine-10-carboxylic acid (pyridin-2-ylmethyl)-amide]
– | 117 | NC(=O)c1c2n(c3c(N4CCN(CCc5ccc(F)c(F)c5)CC4)ncnc13)CCCC2 [4-{4-[2-(3,4-Difluoro-phenyl)-ethyl]-piperazin-1-yl}-6,7,8,9-tetrahydro-pyrimido[4,5-b]indolizine-10-carboxylic acid amide]
